The text below walks through data of patent publication US12636260B2, “Application of α-asarone in preparation of medicine for preventing or treating hemorrhagic stroke” (CHENGDU XINRUI TAIKANG TECHNOLOGY CO., LTD., priority 2021, dated 2026).

One data set deals with mouse bone marrow cells. The data set is described as follows: Mouse bone marrow micronucleus test by flow cytometry. The following applies: mice. Type of data set: in vivo. As to the method: Experimental grouping and administration: The animals were randomly divided into five groups with 10 […] in each group: blank control group (blank group, administrated blank emulsion with the same volume as the high-dose group of α-asarone), cyclophosphamide group (CTX group, 40 mg/kg), low dose of α-asarone emulsion injection group (prepared by preparation embodiment 7, 100 mg/kg/day, ASA-L group), medium dose of α-asarone emulsion injection group (prepared by preparation embodiment 7, 150 mg/kg/day, ASA-M group), and high dose of α-asarone emulsion injection group (prepared from preparation embodiment 7, 200 mg/kg/day, ASA-H group).
All drugs were administrated through the tail vein for continuous 4 days except for the single injection of the positive control drug cyclophosphamide (CTX) 24 hours before sampling. After 24 hours of the last administration, the mice were sacrificed to separate both femurs. The femoral bone marrow cells were washed with PBS and filtered by 300 mesh nylon cell sieves to prepare a single-cell suspension. The suspension was centrifuged at 1650 rpm for 5 min, and the cell concentration was adjusted to 5×10^6 cells/mL by PBS resuspension. For each sample, 100 μL of the cell suspension was incubated with 400 μL of the PIPES-PI solution (10 mL of PIPES solution (concentration of 3.5 mg/mL)+0.5 mg PI+0.01 mL Triton X-100 (concentration of 0.1%)), gently blown and mixed, at 4° C. in the dark for 30 min and detected by a flow cytometry. […] The higher the value, the stronger the genotoxicity.
In general terms: Flow cytometry measures light scatter and fluorescence of single cells or particles in a stream.

In a further data set the test system is ICH rats. The data set is described as follows: Short-term neurological function of ICH rats (Garcia score, beam balance test). As to conditions: for Beam balance score / Garcia score: ICH model, 24 hours after modeling. Type of data set: in vivo, rat. As to the method:
(§1) Experimental grouping: At 2 h after endovascular perforation or collagenase VII injection, Zea Longa score was used to evaluate the neurological function of rats. Successful model rats were randomly divided into groups for administration.
(§2) All groups were administrated through the tail vein injection except for group N administrated intraperitoneally.
The rats were fasted for 12 hours before operation, and were anesthetized with 4% isoflurane, and kept anesthetized with 2% isoflurane. The animals were fixed in the prone position in a stereotaxic apparatus with the body temperature maintained at about 37° C. A traditional skin incision of the head was prepared along the midline. According to the stereotaxic atlas of the rat brain translated by Zhuge Qichao (George Paxinos, Charles Watson, Paxinos, Watson, & Zhuge Qichao. The Rat Brain in Stereotaxic Coordinates [M]. People's Medical Publishing House, 2005), the right caudate nucleus of the rat was determined as 0.0 mm anterior, 3.0 mm lateral to the bregma, and 5.5 mm ventral to the cortical surface. After labeling, we drilled an open window in the skull, and 1 μL of 0.5 U collagenase VII was slowly injected for 5 minutes with a microinjector. After the injection, the needle was stagnated for 8 minutes and slowly withdrawn. Then the scalp was sutured after the burr hole of skull was sealed with a sterile bone wax, and the rats were returned to the cage for normal feeding. The sham group conducted the same procedure as the model group, but received an equal volume of physiological saline into the caudate nucleus.
(§3) According to Zea Longa's neurological function score, the rats were scored 2 hours after the operation when they were awake from anesthesia. Successful model rats with a score of 1 to 3 points were enrolled in the group: • 0 points: no neurological deficits with normal activity; • 1 point: inability to fully extend the contralateral forepaw; • 2 points: the animal appears to turn in circles when crawling; • 3 points: the animal tends to lean to the hemiplegic side; • 4 points: the animal cannot walk spontaneously or loses consciousness. 1.4 Assessment of Short-Term Neurological Function
The neurological function of rats was comprehensively evaluated with Garcia score and beam balance test 24 hours after modeling. The criteria of Garcia score are shown in Table 1, which evaluates the movement, sensation, climbing and limb symmetry of the rats with the score range of 3 to 18 points. The lower the score, the more severe the neurological injury. The criteria of the beam balance test are shown in Table 2, which evaluated the proprioception and body coordination of rats with the score range of 0 to 6 points. The higher the score, the more severe the neurological injury. Scoring was done independently by a technician blinded to the modeling and drug administration.

For data set [1], the system named is SAH rats. The data set is described as follows: Short-term neurological function of SAH rats (Garcia score, beam balance test, bleeding score). It counts as in vivo, rat. As to conditions: for Beam balance score / Garcia score: SAH model, 24 hours after modeling. The protocol:
as §1, §2
The rats were fasted for 12 hours before operation, and were anesthetized with 4% isoflurane, and kept anesthetized with 2% isoflurane. The animals were fixed in the supine position with the body temperature maintained at about 37° C. A traditional skin incision of the neck was performed along the midline. The muscle and fascia were separated along the medial margin of the sternocleidomastoid muscle to expose the right side, then the common carotid artery (CCA), external carotid artery (ECA) and internal carotid artery (ICA) were bluntly separated with disposal lines placed at CCA proximal end, ICA and ECA for use. The CCA proximal end and the ECA were ligated, and the ICA was temporarily clamped with an arterial clip, and then a small hole was poked with a needle at about 4 mm from the bifurcation at the CCA. A nylon suture was introduced into the CCA from the hole and advanced through the ICA after releasing the arterial clip, and the suture was inserted intracranially. […] The suture moved forward for roughly 2 mm to perforate the artery followed by instant withdraw, and then the suture was completely removed and the ICA was ligated. Finally, the incision was cleaned with normal saline and sutured. The sham group conducted the same procedure as the model group except for the perforation. After awakening from anesthesia, the animals were raised normally.
The SAH severity was grading after rat's euthanasia, i.e., completing the evaluation of short-term neurological function. The score was determined by the amount of subarachnoid hemorrhage on the surface of basal cistern and brain tissue which was divided into six parts by the Willis ring composed of basilar artery, anterior cerebral artery, internal carotid artery, posterior cerebral artery and posterior communicating artery. Each part was graded from 0 to 3 points according to the amount of subarachnoid blood clots, i.e., 0 points: no subarachnoid blood; 1 point: a small amount of subarachnoid blood; 2 points: moderate amount of blood clots with recognizable arteries; 3 points: blood clots cover all arteries in the area. All 6 part scores were added up for a total of 18 points. According to the final score, SAH hemorrhage severity could be divided into mild subarachnoid hemorrhage (0 to 7 points), moderate subarachnoid hemorrhage (8 to 12 points), and severe subarachnoid hemorrhage (13 to 18 points). The moderate to severe SAH models were selected for statistical analysis (score≥8 points).
as §3
The neurological function of rats was comprehensively evaluated with Garcia score and beam balance test 24 hours after modeling. The criteria of Garcia score are shown in Table 1, which evaluates the movement, sensation, climbing and limb symmetry of the rats with the score range of 3 to 18 points. The lower the score, the more severe the neurological injury. The criteria of the beam balance test are shown in Table 2, which evaluated the proprioception and body coordination of rats with the score range of 0 to 6 points. […]

Data set [2] relates to SAH rats. The data set is described as follows: Long-term survival rate of SAH rats. It counts as in vivo, rat. The following applies: nimodipine injection 1 mg/kg intraperitoneally, 2 hours after modeling then once a day for 14 days. As to the method: The experimental materials, grouping and modeling methods were the same as those in effect embodiment 1. The rats were immediately administrated 2 hours after SAH modeling according to the grouping administration protocol and continued to be administrated once a day for 14 days thereafter, and the survival of the rats was observed and recorded for 14 days. The mortality rate within 24 hours in group S was as high as 53.8%.

The subject of data set [3] is SAH rats. The data set is described as follows: Secondary epilepsy in SAH rats (Racine score, seizures). It counts as in vivo, rat. The following applies: within 24 hours after SAH, group N, nimodipine injection 1 mg/kg intraperitoneally. As to the method: The experimental materials, grouping, modeling method and administration protocol were the same as those in the effect embodiment 1, and the seizures of rats in each group were observed within 24 hours after SAH.

Setting [4] is: CTX group, 40 mg/kg, single injection 24 hours before sampling.
The mark [5] stands for this setting: group B, β-asarone emulsion injection 20 mg/kg tail vein.
Setting [6] is: group N, nimodipine injection 1 mg/kg intraperitoneally.
Setting [7] is: group V, vinpocetine injection 2 mg/kg tail vein.

On to `O=P1(N(CCCl)CCCl)NCCCO1` (centres unmarked) [CTX, cyclophosphamide, reference compound], for which, in the data set with mouse bone marrow cells (setting [4]), the MNPCE came to 0.86 ± 0.25, the PCE is 36.46 ± 8.01 and the “fMNPCE (‰)” value is recorded as 24.36 ± 8.03 ‰. Moreover, the “micronucleus rate compared to the blank emulsion group” value in the data set with mouse bone marrow cells (cyclophosphamide 40 mg/kg (P<0.01)) was “significantly higher”.

For `C/C=C\c1cc(OC)c(OC)cc1OC` [β-asarone, reference compound], the “effect against the neurological impairment” value with ICH rats (ICH model rats, group B, β-asarone emulsion injection 20 mg/kg) is “no obvious effect”; in the data set with SAH rats [1] (SAH model rats, group B, β-asarone emulsion injection 20 mg/kg), “no obvious effect”. The values for the Beam balance score in the data set with ICH rats (setting [5]) and in the data set on SAH rats [1] (setting [5]) were 3.76 and 3.70, respectively. In addition, the Garcia score worked out at 9.12 with ICH rats (setting [5]) and 10.51 in the data set with SAH rats [1] (setting [5]).

Compound `COCCOC(=O)C1=C(C)NC(C)=C(C(=O)OC(C)C)C1c1cccc([N+](=O)[O-])c1` (centres unmarked) [nimodipine, reference compound] had a Survival rate in the data set on SAH rats [2] (Day 14, group N) of 58.3%. Also, the 24-hour mortality rate in the data set on SAH rats [2] (group N) was found to be 25.0%. Also, in the data set on SAH rats [3], the “Clonic seizures (%)” value came to 18.8%, the Racine score stood at 0.81 ± 1.56 and the “Tonic seizures (%)” value stood at 6.2%. For the same compound, in the data set with ICH rats (setting [6]), the Beam balance score is reported as 3.89 and the Garcia score was 8.92. Besides, in the data set with SAH rats [1] (setting [6]), the Beam balance score came out at 3.01 and the Garcia score is 11.33.

For the compound `CCOC(=O)C1=C[C@]2(CC)CCCN3CCc4c(n1c1ccccc41)[C@@H]32` [vinpocetine, reference compound], in the data set on ICH rats (setting [7]), the Beam balance score is 3.27 and the Garcia score came to 10.56. In the data set on SAH rats [1] (setting [7]), this compound had a Beam balance score of 3.54 and a Garcia score of 10.30.
